Values joined by “and” are separate entries in the source; they are usually repeats but may differ in a detail not shown here. Identical values can stand only once. Like-named read-outs stand apart in the source and are kept apart here.
Legend:
ARG1 = experiment: RNA-seq of compound-treated primary human hepatocytes, ARG1 expression; assay type: cell-based; conditions: for Fold change (Log 2) vs untreated, ARG1 expression: RNA-seq (Table 7)
SLC25A15 = experiment: RNA-seq of compound-treated primary human hepatocytes, SLC25A15 expression; assay type: cell-based
urea cycle genes = experiment: RNA-seq of primary human hepatocytes, compounds that modulate multiple urea cycle-related genes; assay type: cell-based; conditions: primary human hepatocytes, RNA-seq; for Up-regulated Genes: urea cycle-related genes significantly increased (Table 10)
OTC = experiment: RNA-seq of compound-treated primary human hepatocytes, OTC expression; assay type: cell-based; conditions: for OTC expression, Fold change (Log 2) vs untreated: primary human hepatocytes, RNA-seq
CPS1 = experiment: RNA-seq of compound-treated primary human hepatocytes, CPS1 expression; assay type: cell-based; conditions: for CPS1 expression, Fold change (Log 2) vs untreated / Relative CPS1 level vs Untreated (±Standard Deviation): primary human hepatocytes; for CPS1 expression, Fold change (Log 2) vs untreated: RNA-seq; for Relative CPS1 level vs Untreated (±Standard Deviation): 1 μM, triplicate (Table 19, FIG. 11)
SLC25A13 = experiment: RNA-seq of compound-treated primary human hepatocytes, SLC25A13 expression; assay type: cell-based; conditions: for Relative SLC25A13 level vs Untreated (±Standard Deviation): primary human hepatocytes, triplicate (Table 23, FIG. 15)
NAGS = assay type: cell-based, human
ASS1 = experiment: RNA-seq of compound-treated primary human hepatocytes, ASS1 expression; assay type: cell-based
[1] = 3 μM, primary human hepatocytes, triplicate (Table 24, FIG. 16A-B)
[2] = 10 μM, primary human hepatocytes, triplicate (Table 24, FIG. 16A-B)
[3] = 10 μM, primary human hepatocytes, triplicate (Table 21, FIG. 13)
[4] = 10 μM, primary human hepatocytes, triplicate (Table 15, FIG. 7)
[5] = 3 μM, primary human hepatocytes, triplicate (Table 17, FIG. 9)

PDGF
Fold change (Log 2) vs untreated, ARG1 expression (ARG1; primary human hepatocytes): 1.85 Log 2
Fold change (Log 2) vs untreated, SLC25A15 expression (SLC25A15; primary human hepatocytes, RNA-seq (Table 8)): 0.71 Log 2
number of urea cycle genes whose expression was significantly up-regulated (urea cycle genes): four
Up-regulated Genes (urea cycle genes): CPS1, OTC, ARG1, SLC25A15
OTC expression, Fold change (Log 2) vs untreated (OTC): 0.77 Log 2
CPS1 expression, Fold change (Log 2) vs untreated (CPS1): 2.12 Log 2

O=C1CCc2c(Oc3ccc4c(c3)[C@@H]3[C@H](O4)[C@H]3c3nc4ccc(C(F)(F)F)cc4[nH]3)ccnc2N1 [Lifirafenib (BGB-283), Lifirafenib]
Relative SLC25A13 level vs Untreated (±Standard Deviation) (SLC25A13; 10 μM): 1.92 ± 0.11
increase in SLC25A13 gene expression (Table 23, FIG. 15) (SLC25A13; Example 11, relative mRNA vs DMSO): greatest increase
Relative SLC25A15 level vs Untreated (±Standard Deviation) (SLC25A15): 1.92 ± 0.11 and 2.00 ± 0.13
Relative NAGS level vs Untreated (±Standard Deviation) (NAGS): 1.35 ± 0.35 and 1.44 ± 0.15
Relative ASS1 level vs Untreated (±Standard Deviation) (ASS1): 1.55 ± 0.28

COc1cccc2cc(-c3nc([C@H]4CC[C@H](C(=O)O)CC4)n4ncnc(N)c34)[nH]c12 [OSI-027]
Relative SLC25A13 level vs Untreated (±Standard Deviation) (SLC25A13; 1 μM): 1.53 ± 0.01
Relative SLC25A13 level vs Untreated (±Standard Deviation) (SLC25A13; 3 μM): 1.87 ± 0.46
Relative SLC25A13 level vs Untreated (±Standard Deviation) (SLC25A13; 10 μM): 1.52 ± 0.04
Relative SLC25A15 level vs Untreated (±Standard Deviation) (SLC25A15; 1 μM, primary human hepatocytes, triplicate (Table 24, FIG. 16A-B)): 1.53 ± 0.01
Relative SLC25A15 level vs Untreated (±Standard Deviation) (SLC25A15; [1]): 1.87 ± 0.46
Relative SLC25A15 level vs Untreated (±Standard Deviation) (SLC25A15; [2]): 1.52 ± 0.04
Relative NAGS level vs Untreated (±Standard Deviation) (NAGS; 0.3 μM, primary human hepatocytes, triplicate (Table 21, FIG. 13)): 1.46 ± 0.07
Relative NAGS level vs Untreated (±Standard Deviation) (NAGS; 1 μM, primary human hepatocytes, triplicate (Table 21, FIG. 13)): 1.37 ± 0.27
Relative NAGS level vs Untreated (±Standard Deviation) (NAGS; 3 μM, primary human hepatocytes, triplicate (Table 21, FIG. 13)): 2.51 ± 0.16
Relative NAGS level vs Untreated (±Standard Deviation) (NAGS; [3]): 2.14 ± 0.12
Relative ASS1 level vs Untreated (±Standard Deviation) (ASS1; 1 μM, primary human hepatocytes, triplicate (Table 15, FIG. 7)): 1.55 ± 0.16
Relative ASS1 level vs Untreated (±Standard Deviation) (ASS1; 3 μM, primary human hepatocytes, triplicate (Table 15, FIG. 7)): 1.45 ± 0.10
Relative ASS1 level vs Untreated (±Standard Deviation) (ASS1; [4]): 2.05 ± 0.00

EGF: Epidermal Growth Factor, a polypeptide growth factor
Fold change (Log 2) vs untreated, ARG1 expression (ARG1; primary human hepatocytes): 1.46 Log 2
number of urea cycle genes whose expression was significantly up-regulated (urea cycle genes): three
Up-regulated Genes (urea cycle genes): CPS1, OTC, ARG1
OTC expression, Fold change (Log 2) vs untreated (OTC): 0.64 Log 2
CPS1 expression, Fold change (Log 2) vs untreated (CPS1): 1.93 Log 2

FC(F)(F)c1ccc(/C=C/c2nc(COc3ccc(CCCCn4ccnn4)cc3)co2)cc1 [Mubritinib (TAK 165), Mubritinib]
Relative SLC25A13 level vs Untreated (±Standard Deviation) (SLC25A13; 0.3 μM): 1.34 ± 0.33
Relative ARGI level vs Untreated (±Standard Deviation) (ARG1): 1.93 ± 0.05 and 1.86 ± 0.04
increase in ARG1 gene expression (Tables 17, 18, FIG. 9, 10) (ARG1): greatest increase
Increase in SLC25A15 gene expression (qualitative) (SLC25A15): greatest increase
increase in OTC gene expression (Table 14, FIG. 6) (OTC): significant increase
increase in CPS1 gene expression (Tables 19, 20, FIG. 11, 12) (CPS1): greatest increase
Relative ASS1 level vs Untreated (±Standard Deviation) (ASS1): 2.56 ± 0.11 and 2.23 ± 0.53 and 2.52 ± 0.15 and 1.66 ± 0.98 and 1.87 ± 0.24 and 2.14 ± 0.39 and 2.77 ± 0.69
increase in ASS1 gene expression (Tables 15, 16, FIG. 7, 8) (ASS1): greatest increase

CCNC(=O)Nc1ccc(-c2nc(N3CCOC[C@@H]3C)c3c(n2)C(C)(C)S(=O)(=O)C3)cc1 [CZ415]
Relative SLC25A13 level vs Untreated (±Standard Deviation) (SLC25A13; 3 μM): 1.61 ± 0.19
Relative SLC25A13 level vs Untreated (±Standard Deviation) (SLC25A13; 10 μM): 1.52 ± 0.17
Relative ARGI level vs Untreated (±Standard Deviation) (ARG1; [5]): 1.35 ± 0.12
Relative SLC25A15 level vs Untreated (±Standard Deviation) (SLC25A15): 1.61 ± 0.19 and 1.52 ± 0.17
Relative CPS1 level vs Untreated (±Standard Deviation) (CPS1): 1.32 ± 0.04
Relative NAGS level vs Untreated (±Standard Deviation) (NAGS): 2.00 ± 0.27
increase in NAGS gene expression (Tables 21, 22, FIG. 13, 14) (NAGS): greatest increase
Relative ASS1 level vs Untreated (±Standard Deviation) (ASS1; [4]): 1.65 ± 0.11

COc1ccc(-c2ccc3c(N4CCOC[C@@H]4C)nc(N4CCOC[C@@H]4C)nc3n2)cc1CO [AZD-8055]
Relative SLC25A13 level vs Untreated (±Standard Deviation) (SLC25A13; 3 μM): 1.35 ± 0.06
Relative SLC25A13 level vs Untreated (±Standard Deviation) (SLC25A13; 10 μM): 1.64 ± 0.09
Relative ARGI level vs Untreated (±Standard Deviation) (ARG1; 0.3 μM, primary human hepatocytes, triplicate (Table 17, FIG. 9)): 1.44 ± 0.09
Relative ARGI level vs Untreated (±Standard Deviation) (ARG1; 1 μM, primary human hepatocytes, triplicate (Table 17, FIG. 9)): 1.43 ± 0.25
Relative ARGI level vs Untreated (±Standard Deviation) (ARG1; [5]): 1.36 ± 0.07
Relative SLC25A15 level vs Untreated (±Standard Deviation) (SLC25A15; [1]): 1.3 ± 0.06
Relative SLC25A15 level vs Untreated (±Standard Deviation) (SLC25A15; [2]): 1.64 ± 0.09
Relative CPS1 level vs Untreated (±Standard Deviation) (CPS1): 1.42 ± 0.24
Relative NAGS level vs Untreated (±Standard Deviation) (NAGS; [3]): 1.43 ± 0.01
Relative ASS1 level vs Untreated (±Standard Deviation) (ASS1; [4]): 1.66 ± 0.11

— patent US11266655B2, “Methods and compositions for treating urea cycle disorders” (Camp4 Therapeutics Corporation, priority 2019, dated 2022)
